# Test results taken from patent publication US11608323B2 (SYNGENTA LIMITED, priority 2013, dated 2023).
# Key:
# Type in all cases: in vivo
# ALOMY [1] = test: Pre-emergence herbicidal activity, glasshouse pot test; conditions: rate 1000 g/Ha, evaluated after 13 days, scale 0-5
# Description: (§1) Seeds of a variety of test species were sown in standard soil in pots. After cultivation for one day (pre-emergence) under controlled conditions in a glasshouse (at 24/16° C., day/night; 14 hours light; 65% humidity), the plants were sprayed with an aqueous spray solution derived from the formulation of the technical active ingredient in acetone/water (50:50) solution containing 0.5% Tween 20 (polyoxyethelyene sorbitan monolaurate, CAS RN 9005-64-5). The test plants were then grown in a glasshouse under controlled conditions (at 24/16° C., day/night; 14 hours light; 65% humidity) and watered twice daily. After 13 days, the test was evaluated (5=total damage to plant; 0=no damage to plant).
# AMARE [2] = test: as above; conditions: rate 1000 g/Ha, evaluated after 13 days, scale 0-5
# Description: as §1
# ECHCG [3] = test: as above; conditions: rate 1000 g/Ha, evaluated after 13 days, scale 0-5
# Description: as §1
# SETFA [4] = test: as above; conditions: rate 1000 g/Ha, evaluated after 13 days, scale 0-5
# Description: as §1
# ABUTH [5] = test: Post-emergence herbicidal activity, glasshouse pot test; conditions: Abutilon theophrasti; application post-emergence; rate 1000 g/Ha; evaluated after 13 days
# Description: (§2) Seeds of a variety of test species were sown in standard soil in pots. After 8 days cultivation (post-emergence) under controlled conditions in a glasshouse (at 24/16° C., day/night; 14 hours light; 65% humidity), the plants were sprayed with an aqueous spray solution derived from the formulation of the technical active ingredient in acetone/water (50:50) solution containing 0.5% Tween 20 (polyoxyethelyene sorbitan monolaurate, CAS RN 9005-64-5). The test plants were then grown in a glasshouse under controlled conditions (at 24/16° C., day/night; 14 hours light; 65% humidity) and watered twice daily. After 13 days, the test was evaluated (5=total damage to plant; 0=no damage to plant).
# ALOMY [6] = test: as above; conditions: Alopecurus myosuroides; application post-emergence; rate 1000 g/Ha; evaluated after 13 days
# Description: as §2
# AMARE [7] = test: as above; conditions: Amaranthus retroflexus; application post-emergence; rate 1000 g/Ha; evaluated after 13 days
# Description: as §2
# ECHCG [8] = test: as above; conditions: Echinochloa crus-galli; application post-emergence; rate 1000 g/Ha; evaluated after 13 days
# Description: as §2
# SETFA [9] = test: as above; conditions: Setaria faberi; application post-emergence; rate 1000 g/Ha; evaluated after 13 days
# Description: as §2
# ZEAMX [10] = test: as above; conditions: Zea mays; application post-emergence; rate 1000 g/Ha; evaluated after 13 days
# Description: as §2
# ABUTH [11] = test: Pre-emergence herbicidal activity, glasshouse pot test; conditions: rate 1000 g/Ha, evaluated after 13 days, scale 0-5
# Description: as §1
# ZEAMX [12] = test: as above; conditions: rate 1000 g/Ha, evaluated after 13 days, scale 0-5
# Description: as §1
SMILES,"ALOMY damage score, application pre-emergence (ALOMY [1])","AMARE damage score, application pre-emergence (AMARE [2])","ECHCG damage score, application pre-emergence (ECHCG [3])","SETFA damage score, application pre-emergence (SETFA [4])",Post-emergence herbicidal activity ABUTH (damage score 0-5) (ABUTH [5]),Post-emergence herbicidal activity ALOMY (damage score 0-5) (ALOMY [6]),Post-emergence herbicidal activity AMARE (damage score 0-5) (AMARE [7]),Post-emergence herbicidal activity ECHCG (damage score 0-5) (ECHCG [8]),Post-emergence herbicidal activity SETFA (damage score 0-5) (SETFA [9]),Post-emergence herbicidal activity ZEAMX (damage score 0-5) (ZEAMX [10]),"ABUTH damage score, application pre-emergence (ABUTH [11])","ZEAMX damage score, application pre-emergence (ZEAMX [12])"
CCOC1C(O)N(c2cc(C(F)(F)F)c(-c3cncnc3)cn2)C(=O)N1C (stereo not drawn) [Compound A14],4,5,5,5,5,4,5,5,5,3,,
C#CCN1C(=O)N(c2cc(C(F)(F)F)ccn2)C(O)C1C (stereo not drawn) [Compound A87],,5,4,4,5,,5,5,5,4,5,3
CCN1C(=O)N(c2cc(C(F)(F)F)ccn2)C(O)C1C (stereo not drawn) [Compound A88],,5,4,4,5,,5,5,5,3,5,2
COC(C)(C)c1ccnc(N2C(=O)N(C)C(C)C2O)c1 (stereo not drawn) [Compound A89],,5,4,4,5,,5,5,5,3,5,2
CON1C(=O)N(c2cc(C(F)(F)Cl)ccn2)C(O)[C@@H]1C (stereo partly drawn) [Compound A90],,5,4,4,5,,5,5,5,5,3,2
CC1NC(=O)N(c2cc(C(F)(F)Cl)ccn2)C1O (stereo not drawn) [Compound A91],,5,4,4,5,,5,5,4,3,5,2
CC1C(O)N(c2cc(Cl)ccn2)C(=O)N1C (stereo not drawn) [Compound A92],,5,5,4,5,,5,5,5,4,5,3
CCN1CC(O)N(c2cc(C(F)(F)F)ccn2)C1=O (stereo not drawn) [Compound A95],,5,5,5,5,,5,5,5,2,5,1
CCO[C@@H]1[C@@H](OC(=O)[C@](OC)(c2ccccc2)C(F)(F)F)N(c2cc(C(F)(F)F)ccn2)C(=O)N1C [Compound A102],,5,4,3,5,,5,2,1,1,5,1
CCO[C@H]1[C@H](OC(=O)[C@](OC)(c2ccccc2)C(F)(F)F)N(c2cc(C(F)(F)F)ccn2)C(=O)N1C [Compound A103],,2,1,4,0,,2,0,1,1,1,1
CON1C(=O)N(c2cc(C(F)(F)F)ccn2)C(NCc2ccccc2)[C@@H]1C (stereo partly drawn) [Compound A104],,5,5,5,5,,5,5,5,5,4,3
COCc1cnc(N2C(=O)N(C)C(C)C2O)cc1C(F)(F)F (stereo not drawn) [Compound A105],,5,5,5,5,,5,5,5,5,5,4
CC1C(O)N(c2cc(C(F)(F)F)ccn2)C(=O)N1C(F)F (stereo not drawn) [Compound A106],,5,4,3,5,,5,4,4,1,5,2
C=CCN1C(=O)N(c2cc(C(F)(F)F)ccn2)C(O)C1C (stereo not drawn) [Compound A107],,5,5,4,5,,5,5,5,3,5,2
COCCOCc1cnc(N2C(=O)N(C)C(C)C2O)cc1C(F)(F)F (stereo not drawn) [Compound A108],,5,5,4,5,,5,5,5,5,5,2
